Assay results published in US20240270759A1, “Preparation of SHP2 phosphatase inhibitors and its applications” (Ya Therapeutics Inc, priority 2021, published 2024).

Target: T1, SHP2 full-length protein (Homo sapiens, UniProt Q06124)
T1 construct: purchased BPS Bioscience #79330
T1 sequence (Q06124 1-593): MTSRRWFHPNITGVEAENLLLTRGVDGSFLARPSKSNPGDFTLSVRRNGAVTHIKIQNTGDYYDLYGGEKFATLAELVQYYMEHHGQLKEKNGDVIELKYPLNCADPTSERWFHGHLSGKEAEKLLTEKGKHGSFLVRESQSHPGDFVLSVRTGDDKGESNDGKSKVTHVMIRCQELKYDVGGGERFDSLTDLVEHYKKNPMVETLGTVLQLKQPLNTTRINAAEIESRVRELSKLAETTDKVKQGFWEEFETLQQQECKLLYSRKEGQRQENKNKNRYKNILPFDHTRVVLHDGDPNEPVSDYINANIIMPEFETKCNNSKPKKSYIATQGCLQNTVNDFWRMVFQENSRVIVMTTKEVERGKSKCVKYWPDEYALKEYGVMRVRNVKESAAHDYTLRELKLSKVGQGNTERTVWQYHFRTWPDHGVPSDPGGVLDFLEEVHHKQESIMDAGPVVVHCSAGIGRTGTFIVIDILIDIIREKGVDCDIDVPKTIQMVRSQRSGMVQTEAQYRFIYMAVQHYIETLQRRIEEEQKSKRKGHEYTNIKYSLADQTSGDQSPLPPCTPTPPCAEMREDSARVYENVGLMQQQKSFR
Assay: SHP2 allosteric inhibition experiment (Homogeneous Full Length SHP-2 Assay Kit)
Assay type: biochemical
Conditions: full-length SHP2 0.06 nM with SHP-2 activating peptide; ten-point, 1 μM to 0.05 nM; read-out: IC50 Values of Compounds Inhibiting SHP2

Row | IC50 | Compound
1 | ≤ 10 nM | C[C@@H]1OCC2(CCN(c3ncc4nc(Sc5cccc(NC(=O)c6c(O)nc7n(c6=O)CCCC7)c5Cl)ccc4n3)CC2)[C@@H]1N [Compound 96, N-(3-((2-((3S,4S)-4-amino-3-methyl-2-oxa-8-azaspiro[4.5]decane-8-yl)pyridinyl[3,2-d]pyrimidine-6-yl)mercapto)-2-chlorophenyl)-2-hydroxy-4-oxo-6,7,8,9-tetrahydro-4H-pyridinyl[1,2-a]pyrimidine-3-carboxamide]
2 | ≤ 10 nM | C[C@@H]1OCC2(CCN(c3ncc4nc(Sc5cccc(-c6ccncn6)c5Cl)cnc4n3)CC2)[C@@H]1N [Compound 76, (3S,4S)-8-(6-((2-chloro-3-(pyrimidine-4-yl)phenyl)mercapto)pteridine-2-yl)-3-methyl-2-oxa-8-azaspiro[4.5]decane-4-amine]
3 | ≤ 10 nM | C[C@@H]1OCC2(CCN(c3cnc4nc(Sc5cccc(NC(=O)c6cnccn6)c5Cl)ncc4n3)CC2)[C@@H]1N [Compound 84, N-(3-((6-((3S,4S)-4-amino-3-methyl-2-oxa-8-azaspiro[4.5]decane-8-yl)pteridine-2-yl)mercapto)-2-chlorophenyl)pyrazine-2-carboxamide]
4 | 10 to 100 nM | N[C@@H]1c2cccnc2CC12CCN(c1cnc3c(=O)n(-c4cccc(Cl)c4Cl)c(=O)[nH]c3n1)CC2 [Compound 14, (S)-7-(5-Amino-5,7-dihydrospiro [cyclopenta[b]pyridine-6,4′-piperidine]-1′-yl)-3-(2,3-dichlorophenyl)pteridine-2,4(1 H,3H)-dione]
5 | ≤ 10 nM | C[C@@H]1OCC2(CCN(c3ncc4nc(Sc5cccc(-c6cnccn6)c5Cl)cnc4n3)CC2)[C@@H]1N [Compound 73, (3S,4S)-8-(6-((2-chloro-3-(pyrazine-2-yl)phenyl)mercapto)pteridine-2-yl)-3-methyl-2-oxa-8-azaspiro[4.5]decane-4-amine]
6 | ≤ 10 nM | C[C@@H]1OCC2(CCN(c3ncc(Sc4cccc(NC(=O)c5cnccn5)c4Cl)cn3)CC2)[C@@H]1N [Compound 126, N-(3-((2-((3S,4S)-4-amino-3-methyl-2-oxa-8-azaspiro[4.5]decane-8-yl)pyrimidine-5-yl)mercapto)-2-chlorophenyl)pyrazine-2-carboxamide]
7 | ≤ 10 nM | C[C@@H]1OCC2(CCN(c3ncc(Sc4cccc(NC(=O)c5ccccn5)c4Cl)cn3)CC2)[C@@H]1N [Compound 125, N-(3-((2-((3S,4S)-4-amino-3-methyl-2-oxa-8-azaspiro[4.5]decane-8-yl)pyrimidine-5-yl)mercapto)-2-chlorophenyl)pyridine-2-carboxamide]
8 | ≤ 10 nM | NC1c2ncccc2CC12CCN(c1ccc3c(=O)n(-c4cccc(Cl)c4Cl)c(=O)[nH]c3c1)CC2 (stereo in doubt) [Compound 8, (S)-7-(7-Amino-5,7-dihydrospiro[cyclopenta[b]pyridine-6,4′-piperidine]-1′-yl)-3-(2,3-dichlorophenyl)quinazoline-2,4(1H,3H)-dione]

Further lines, the molecule ahead of its results:

Row | Compound | IC50
9 | C[C@@H]1OCC2(CCN(c3cnc(Sc4cccc(-c5ccn(C)n5)c4Cl)nc3)CC2)[C@@H]1N [Compound 99, (3S,4S)-8-(2-((2-chloro-3-(1-methyl-1H-pyrazole-3-yl)phenyl)mercapto)pyrimidine-5-yl)-3-methyl-2-oxa-8-azaspiro[4.5]decane-4-amine] | ≤ 10 nM
10 | C[C@@H]1OCC2(CCN(c3ccc4nc(Sc5cccc(-c6ccncn6)c5Cl)ncc4n3)CC2)[C@@H]1N [Compound 77, (3S,4S)-8-(2-((2-chloro-3-(pyrimidine-4-yl)phenyl)mercapto)pyridinyl[3,2-d]pyrimidine-6-yl)-3-methyl-2-oxa-8-azaspiro[4.5]decane-4-amine] | ≤ 10 nM
11 | C[C@@H]1OCC2(CCN(c3ncc(Sc4cccc(-c5cnccn5)c4Cl)nn3)CC2)[C@@H]1N [Compound 135, (3S,4S)-8-(6-((2-chloro-3-(pyrazine-2-yl)phenyl)mercapto)-1,2,4-triazine-3-yl)-3-methyl-2-oxa-8-azaspiro[4.5]decane-4-amine] | ≤ 10 nM
12 | C[C@@H]1OCC2(CCN(c3ncc(Sc4cccc(Nc5cccnc5)c4Cl)cn3)CC2)[C@@H]1N [Compound 119, (3S,4S)-8-(5-((2-chloro-3-(pyridine-3-amino)phenyl)mercapto)pyrimidine-2-yl)-3-me thyl-2-oxa-8-azaspiro[4.5]decane-4-amine] | ≤ 10 nM
13 | C[C@@H]1OCC2(CCN(c3ncc(Sc4cccc(Nc5cnccn5)c4Cl)cn3)CC2)[C@@H]1N [Compound 121, (3S,4S)-8-(5-((2-chloro-3-(pyrazine-2-amino)phenyl)mercapto)pyrimidine-2-yl)-3-me thyl-2-oxa-8-azaspiro[4.5]decane-4-amine] | ≤ 10 nM
14 | Nc1nccc(-n2c(=O)[nH]c3nc(N4CCC5(CC4)Cc4ccncc4[C@H]5N)cnc3c2=O)c1Cl [Compound 21, (S)-3-(2-amino-3-chloropyridine-4-yl)-7-(7-amino-5,7-dihydrospiro[cyclopenta[c]pyridine-6,4′-piperidine]-1′-yl)pteridine-2,4(1H,3H)-dione] | ≤ 10 nM
15 | C[C@@H]1OCC2(CCN(c3ncc(Sc4cccc(NC(=O)c5ncccn5)c4Cl)cn3)CC2)[C@@H]1N [Compound 123, N-(3-((2-((3S,4S)-4-amino-3-methyl-2-oxa-8-azaspiro[4.5]decane-8-yl I)pyrimidine-5-yl)mercapto)-2-chlorophenyl)pyrimidine-2-carboxamide] | ≤ 10 nM
